The results in this text go back to patent US20090233999A1, “COMPOSITIONS AND THERAPEUTIC METHODS INVOLVING ISOFLAVONES AND ANALOGUES THEREOF” (NOVOGEN RESEARCH PTY LTD, priority 1999, published 2009).

One data set has as its system INFγ. Description: INFγ production by murine splenocytes. To be noted: 10 μM; Con A. Type of data set: cell-based, mouse. The procedure:
Male Skh-1 (hairless) mice, approximately six weeks old were killed by cervical dislocation. Single cell suspensions were made from the spleen and erythrocytes were lysed in buffer (0.14M NH4Cl, 17 mM Tris, pH 7.2). The remaining splenocytes were cultured in RPMI-1640 (Gibco) supplemented with 10% (v:v) FBS, 2 mM L-glutamine, pen/strep and 50 μM 2-mercaptoethanol. Splenocytes were added to quadruplicate wells containing either the T cell mitogen concanavalin A (Con A, Sigma-Aldrich—0. 4 μg/well), the B-cell mitogen LPS (Sigma-Aldrich—1 μg/well) or no mitogen, as well as test compound at a concentration of 10 μM in DMSO. Samples were analysed after a 3 day incubation at 37° C. in 5% CO2 in air. Cell viability was assessed by adding MTT to each well, incubating for a further 4 hrs and then developing colour with 0.04N HCl in isopropanol. Supernatant samples were frozen at −80° C. and IL-6, IFN-γ and TNFα were detected in triplicate using ELISA kits (BD Biosciences).

The next data set has as its system P-cadherin. Put plainly: UVB psoriasis model: immunohistochemical detection of P-cadherin. Type of data set: in vivo, mouse. To be noted: 20 μM topical. Here is the method: Groups of three Skh:hr-1 mice were exposed to 3×MEdD of UVB radiation, with and without topical treatment with 20 μM Cpd. 18, and were euthanased before and at 24, 48, 72 and 96 h after irradiation, and mid-dorsal skin samples were taken for histological fixation. The samples were fixed for 6 h in Histochoice (Amresco Solon, Ohio), then processed overnight in an automated formalin-ethanol-based system (Tissue Tek VIP; Bayer Diagnostics, Ferntree Gully, Australia) and embedded into paraffin blocks. Sections of 4 μm were cut onto silane-coated slides, de-waxed and rehydrated using xylene followed by graded aqueous ethanol solutions to PBS. Endogenous peroxidase activity of the sections was quenched with 3% H2O2 in methanol for 10 min at room temperature and washed 3 times with PBS. The sections were then blocked with 10% skim milk in PBS for 40 min at room temperature. […]
The stained sections were examined by light microscopy at 20× magnification and images were captured digitally with a Sony Hyper HAD colour video camera (Sony, Tokyo, Japan). Stain intensity was analysed using a Leica Q500 MC image processing and analysis system (Leica, Cambridge, UK) and semi-quantitated in arbitrary image analysis units as the average intensity of 15 sequential fields across the skin section for each of 3 mice per treatment group. […]

A further data set has as its system SJL/J mice (EAE). Put plainly: Experimental autoimmune encephalomyelitis (EAE), PLP 139-151. Type of data set: in vivo, mouse. To be noted: 20 μM, 100 μl topical daily. Here is the method:
EAE induction was carried by immunisation with PLP 139-151 ([…]-NH2) in incomplete Freund's adjuvant (Sigma) supplemented with 4 mg/ml of Mycobacterium tuberculosis (strain H37Ra) as described previously, Groups of 6 female mice aged 4-5 weeks old were immunised, and body weight and the development neurological signs were monitored daily for 6 weeks. Clinical signs were scored according to an established scale:
Cpd. 18 was made up to a concentration of 20 μM in a vehicle of propylene glycol-ethanol-water (1:2:1) with 0.001% DMSO). An aliquot of 100 μl either of Cpd. 18 in vehicle, or the vehicle alone, was applied to the mouse dorsum (six mice per group) for 5 days before the immunisation (with PLP 139-151) and daily post-immunisation for 48 days.

A further data set deals with mast cells. Description: UVB psoriasis model: histochemical identification of dermal mast cells. Type of data set: in vivo, mouse. To be noted: 20 μM topical; 72 h post-UVB; UVB alone 14.2, unirradiated 9.8. The procedure:
Groups of 3 Skh:hr-1 mice were exposed to 3×MEdD of UVB radiation, with and without topical treatments of 20 μM Cpd. 18 immediately and at 24 and 48 h post-UVB. The mice were euthanased and, and mid-dorsal skin samples were taken before and at 72 h after irradiation for histological fixation. The samples were fixed for 6 h in Histochoice and processed and wax-embedded as described above. Sections of 5 μm were cut for histochemical identification of mast cells, by staining with 0.1% toluidine blue solution in McIlvane buffer, pH 3. Positively stained cells with a diameter of 10 μm or more in the dermal compartment were counted under light microscopy (Olympus UPlanApo, Japan) using a at 20× magnification, in 10 sequential non-overlapping fields for each of 3 mice per treatment group, and the average mast cell number per field was obtained. Statistical significance of the differences between groups was determined using Student's t test. All the experiments were performed at least twice, with triplicate skin samples.

The compound `Cc1c(O)ccc2c1OCC(c1cccc(O)c1)=C2` [Cpd. 14, 3′,7-Dihydroxy-8-methylisoflav-3-ene] had a melting point of 130 °C.

Consider `Oc1ccc(C2=Cc3ccc(O)c(Br)c3OC2)cc1` [Cpd. 20, 4′,7-Dihydroxy-8-bromoisoflav-3-ene], for which the “INFγ synthesis by T cells” value in the data set on INFγ was “marked reduction”.

For the compound `COc1ccc(C2=Cc3ccc(O)cc3OC2)cc1OC` [Cpd. 18, 7-Hydroxy-3′,4′-dimethoxyisoflav-3-ene], the “P-cadherin expression in the skin, treatment alone” value in the data set on P-cadherin (without UVB) is listed as “no effect”. For the same compound, in the data set on P-cadherin (72 h, Skh:hr-1), the “reduction of UVB-induced P-cadherin positive cells” value is given as “approximately 50%”. In addition, in the data set on SJL/J mice (EAE), the disease course result was “chronic relatively stable disease”. Also, the “severity of clinical signs” value in the data set with SJL/J mice (EAE) (acute phase and first relapse at 28-36 days) is recorded as “tended to reduce the severity”. Also, the “dermal mast cell number” value in the data set with mast cells was determined as 10.0 cells per field.
